In series [1] the target is T1, AtPQT11/CYP86A4 (Arabidopsis thaliana, UniProt Q9LMM1).
T1 sequence (Q9LMM1 1-554): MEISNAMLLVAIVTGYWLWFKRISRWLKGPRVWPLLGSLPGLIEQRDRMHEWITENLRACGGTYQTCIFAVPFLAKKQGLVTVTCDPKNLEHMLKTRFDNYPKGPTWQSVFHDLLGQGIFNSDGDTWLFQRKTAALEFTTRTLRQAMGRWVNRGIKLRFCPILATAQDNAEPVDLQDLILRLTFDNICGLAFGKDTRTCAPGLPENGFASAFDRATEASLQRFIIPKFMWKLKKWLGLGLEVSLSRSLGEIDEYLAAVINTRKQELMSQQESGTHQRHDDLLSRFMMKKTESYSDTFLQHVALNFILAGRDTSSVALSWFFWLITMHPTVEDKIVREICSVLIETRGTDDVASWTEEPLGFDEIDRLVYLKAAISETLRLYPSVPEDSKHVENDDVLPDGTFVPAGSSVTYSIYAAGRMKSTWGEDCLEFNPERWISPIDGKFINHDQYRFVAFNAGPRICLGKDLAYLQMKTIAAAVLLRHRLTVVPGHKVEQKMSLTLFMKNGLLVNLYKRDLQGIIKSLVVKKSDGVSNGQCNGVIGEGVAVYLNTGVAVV
The series is classed as biochemical. Particulars: 2 mM NADPH in excess; 25 mM phosphate pH 7.0; 27 °C; N-demethylation.

Substrate in series [2]: NC(=O)C1=CN([C@@H]2O[C@H](COP(=O)(O)OP(=O)(O)OC[C@H]3O[C@@H](n4cnc5c(N)ncnc54)[C@H](OP(=O)(O)O)[C@@H]3O)[C@@H](O)[C@H]2O)C=CC1
In words: purified protein. The series is classed as biochemical, Arabidopsis thaliana. Particulars: pH 7.0; 27.0 °C; varied: cofactor.

Turning to `C[n+]1ccc(-c2cc[n+](C)cc2)cc1` [paraquat, 1,1’-dimethyl-4,4’-bipyridynium dichloride], the Km in series [1] is 1.34 µM.

B1: AtPQT11/CYP86A4 (Arabidopsis thaliana) (protein)
chain: MEISNAMLLVAIVTGYWLWFKRISRWLKGPRVWPLLGSLPGLIEQRDRMHEWITENLRACGGTYQTCIFAVPFLAKKQGLVTVTCDPKNLEHMLKTRFDNYPKGPTWQSVFHDLLGQGIFNSDGDTWLFQRKTAALEFTTRTLRQAMGRWVNRGIKLRFCPILATAQDNAEPVDLQDLILRLTFDNICGLAFGKDTRTCAPGLPENGFASAFDRATEASLQRFIIPKFMWKLKKWLGLGLEVSLSRSLGEIDEYLAAVINTRKQELMSQQESGTHQRHDDLLSRFMMKKTESYSDTFLQHVALNFILAGRDTSSVALSWFFWLITMHPTVEDKIVREICSVLIETRGTDDVASWTEEPLGFDEIDRLVYLKAAISETLRLYPSVPEDSKHVENDDVLPDGTFVPAGSSVTYSIYAAGRMKSTWGEDCLEFNPERWISPIDGKFINHDQYRFVAFNAGPRICLGKDLAYLQMKTIAAAVLLRHRLTVVPGHKVEQKMSLTLFMKNGLLVNLYKRDLQGIIKSLVVKKSDGVSNGQCNGVIGEGVAVYLNTGVAVV
For the molecule B1, the Km in series [2] is recorded as 1155 (±214.9) μM.

For the origin of these results see paper doi:10.1101/2021.06.23.449549v1 (biorxiv, 2021).
